# Reference: patent US20240293314A1, “COMPOSITION FOR PARTICLE-MEDIATED TRANSPORT OF A DISSOLVED ACTIVE AGENT INTO HAIR FOLLICLES” (Charité – Universitätmedizin Berlin, priority 2021, published 2024)
# Tests used:
# [1] = type: in vitro ADME
# Excerpt: FIG. 1: Confocal microscopic image of a skin section with hair follicle after topical application of fluorescein natrium salt (green fluorescent dye) dissolved in dispersion medium together with a caffeine nanosuspension.
# Particle-containing formulations were applied as dispersions (particles in a liquid or semi-solid dispersion medium). Besides the particles, the dispersion medium also contained dissolved molecules, name the fluorescent molecule fluorescein, which is an organic compound soluble in water and alcohol.
# [2] = type: in vitro ADME, porcine; conditions: pig, 1 h, 0.003 % w/w
# Method: Three particle-free and three particle-containing formulations were prepared, each containing 0.003% F (dissolved in dispersion medium), and the penetration of F into hair follicles (HF) was studied.
# Fluorescein (0.003% w/w) was added to dispersion media that contained no particles (water, TPGS-solution (1% w/w) or ethanol (96% v/v)) and was added to dispersion media that contained particles (1. curcumin nanocrystals (5% w/w dispersed in TPGS solution (1% w/w)—particle size was 257 nm, polydispersity index 0.26 determined by photon correlation spectroscopy); 2. quercetin nanocrystals (5% w/w dispersed in TPGS solution (1% w/w)—particle size was 580 nm, polydispersity index 0.36, determined by photon correlation spectroscopy); 3. Lipid nanoparticles (10% w/w dispersed in TPGS solution (1% w/w)—particle size was 195 nm, polydispersity index 0.09, determined by photon correlation spectroscopy).
# The formulations (50 μl on a skin areal of 4 cm^2) were applied on fresh porcine ears (ventral side, massage for 60 s, penetration time 1 h at 32° C.). Skin biopsies (Ø 15 mm) were obtained from the treated skin areas from which skin sections (40 μm, 100 sections/biopsy) were prepared. The skin sections and the hair follicle sections were analyzed by epifluorescence microscopy. Images were taken and the penetration depth of the fluorescein was directly measured (n=3). […]
compound,measurement,setting,value
"O=C1OC2(c3ccc(O)cc3Oc3cc(O)ccc32)c2ccccc21 [F, Fluorescein]",penetration into the hair follicles,[1],no efficient penetration into the hair follicles
same,penetration depth with particles compared to the particle-free formulations,[2],> 160%
